Laboratory results from PMC11224357, “Green, facile synthesis and evaluation of unsymmetrical carbamide derivatives as antimicrobial and anticancer agents with mechanistic insights” (Scientific Reports, 2024).
In brackets after ≈: the same amount, converted by molar mass. Read-outs that look alike come from different tables or passages of the source.

Experiments:
Staphylococcus aureus [1] = assay: Lipid peroxidation (LPO) MDA-TBA assay of bacterial cell membrane; assay type: cell-based; conditions: overnight incubation, MDA-TBA at 532 nm
Experimental: (§1) Lipid peroxidation of bacterial cell membranes was a remarkable tool indicating the oxidative stress that was caused by the tested compounds. The lipid peroxidation colorimetric assay kit was used for this purpose. […]. […] Briefly, each tested compound was incubated with each bacterial pathogen overnight under shaking and then 1 mL of the treated bacterial cell was vigorously mixed with 300 μL MDA lysis buffer at 4 °C. The addition of 3 μL of Butylated hydroxytoluene (BHT) was then performed to avoid the pigment interference that resulted from the decomposition of lipophilic peroxides. Thereafter, samples were separated by centrifugation at 8000 rpm for 10 min, and the insoluble substances were discarded. Finally, 200 μL of the clear supernatant was mixed with 600 μL of the TBA solution at 95 °C for 60 min. Samples were then cooled at room temperature, and the developed pink color was determined at 532 nm using a Spectrophotometer (Agilent Cary 100, Germany). The positive control was also prepared using 5% of Hydrogen peroxide and treated each bacterial pathogen for 20 min. The noticed increase in the lipid peroxidation efficiency was expressed from the following equation: Lipidperoxidationefficiency%=NC-NS/NC×100. where NC is the absorbance of lipid peroxidation in the untreated bacterial cells and NS is the absorbance of lipid peroxidation in the treated bacterial cells.

Bacillus subtilis [2] = assay: as above; assay type: cell-based; conditions: overnight incubation, MDA-TBA at 532 nm
Experimental: as §1

Pseudomonas aeruginosa [3] = assay: as above; assay type: cell-based; conditions: overnight incubation, MDA-TBA at 532 nm
Experimental: as §1

Klebsiella pneumonia [4] = assay: as above; assay type: cell-based; conditions: overnight incubation, MDA-TBA at 532 nm
Experimental: as §1

Candida albicans [5] = assay: Agar well diffusion; assay type: cell-based; conditions: read-out: Inhibition Zone
Source text: (§2) The antimicrobial efficiency of the synthesized unsymmetrical carbamide derivatives was screened using standard clinical pathogens derived from Department of Microbiology and Immunology, Faculty of Medicine (Boys), Al-Azhar University. The tested microbial pathogens used in this study were as follows, two Gram-positive bacteria (Bacillus subtilis, Staphylococcus aureus), two Gram-negative bacteria (Pseudomonas aerginousea, klebsiella pneumoniae) and two fungi (Candida albicans, Aspergillus fumgitus). Before each antimicrobial examination, pre-activation of each microbial pathogen was implemented using specific growth conditions. For bacterial ones, preinoculum was prepared using Nuitrent broth medium (Codalab, Spain) at 37 °C for 24 h. while the fungal pathogens were activated using Potato Dextrose broth (Codalab, Spain) at 28 °C for 48 h. Consequently, each tested pathogen justified its inoculum size based on Colony Forming Units (CFU) to be closed to […] during all antimicrobial tests.

Aspergillus fumagitus [6] = assay: Agar well diffusion; assay type: cell-based; conditions: read-out: Inhibition Zone
Source text: as §2

Staphylococcus aureus [7] = assay: Agar well diffusion; assay type: cell-based
Source text: as §2, with “For bacterial ones, preinoculum was prepared using Nuitrent broth medium (Codalab, Spain) at 37 °C for 24 h. while the fungal pathogens were activated using Potato Dextrose broth (Codalab, Spain) at 28 °C for 48 h.” left out

Bacillus subtilis [8] = assay: Agar well diffusion; assay type: cell-based; conditions: read-out: Inhibition Zone
Source text: as §2, with “For bacterial ones, preinoculum was prepared using Nuitrent broth medium (Codalab, Spain) at 37 °C for 24 h. while the fungal pathogens were activated using Potato Dextrose broth (Codalab, Spain) at 28 °C for 48 h.” left out

Pseudomonas aeruginosa [9] = assay: Agar well diffusion; assay type: cell-based; conditions: read-out: Inhibition Zone
Source text: as §2, with “For bacterial ones, preinoculum was prepared using Nuitrent broth medium (Codalab, Spain) at 37 °C for 24 h. while the fungal pathogens were activated using Potato Dextrose broth (Codalab, Spain) at 28 °C for 48 h.” left out

Klebsiella pneumonia [10] = assay: Agar well diffusion; assay type: cell-based; conditions: Klebsiella pneumoniae, read-out: Inhibition Zone
Source text: as §2, with “For bacterial ones, preinoculum was prepared using Nuitrent broth medium (Codalab, Spain) at 37 °C for 24 h. while the fungal pathogens were activated using Potato Dextrose broth (Codalab, Spain) at 28 °C for 48 h.” left out

Staphylococcus aureus [11] = assay: MIC by microdilution (CLSI); assay type: cell-based; conditions: read-out: Minimum inhibitory concentration (MIC)
Experimental: (§3) In brief, a defined weight for each selected compound was dissolved in dimethylsulphoxide (DMSO) and used as a stock solution[29].

Bacillus subtilis [12] = assay: MIC by microdilution (CLSI); assay type: cell-based; conditions: read-out: Minimum inhibitory concentration (MIC)
Experimental: as §3

Pseudomonas aeruginosa [13] = assay: MIC by microdilution (CLSI); assay type: cell-based; conditions: read-out: Minimum inhibitory concentration (MIC)
Experimental: as §3

Klebsiella pneumonia [14] = assay: MIC by microdilution (CLSI); assay type: cell-based; conditions: Klebsiella pneumoniae, read-out: Minimum inhibitory concentration (MIC)
Experimental: as §3

Candida albicans [15] = assay: MIC by microdilution (CLSI); assay type: cell-based; conditions: read-out: Minimum inhibitory concentration (MIC)
Experimental: (§4) For this purpose, serial dilution of the potent compounds was carried out to obtain the desired concentrations (i.e. 10–400 µg/mL). In brief, a defined weight for each selected compound was dissolved in dimethylsulphoxide (DMSO) and used as a stock solution[29]. The determination of the MIC value for each targeted compound was known as the lowest concentration of each sample that yielded a minimum number of colony-forming units (CFU) compared to the untreated samples[28].

Aspergillus fumagitus [16] = assay: MIC by microdilution (CLSI); assay type: cell-based; conditions: read-out: Minimum inhibitory concentration (MIC)
Experimental: as §4

[17] = tested on: BJ-1 (human normal skin fibroblast cells); assay: MTT cytotoxicity assay; assay type: cell-based; conditions: BJ-1 normal cells, 100 µM
Experimental: (§5) The MTT 3-(4,5-dimethylthiazol-2-yl)-2,5-diphenyl-tetrazolium bromide (Bio Basic Canada Inc. Toronto, Canada) assay was used to assess cell viability. The procedures were carried out in a biosafety class II sterile laminar air flow cabinet (Baker, SG403INT; Sanford, ME, USA). […] Cells were seeded at a density of (10^4 cells/well) into 96-well micro titer polypropylene plates and left to adhere for 24 h. The media was aspirated and the test chemicals were given to the cells in a single dose of 100 µM in DMSO. After 48 h of incubation, 40 µL of MTT salt ([…]) was applied to each well. […] Instead of the tested substances, the medium was applied to the untreated cells (negative control). […] The testing substance was dissolved in dimethylsulfoxide (DMSO), and its final concentration in the cells was less than 0.2%. The solvent concentration was the same for all medications and between the control and drug treatments at the same dilution.

MTT cytotoxicity assay = assay type: cell-based, human; conditions: human, BJ-1 normal cells
Experimental: as §5

HCT-116 cells [18] = assay: Annexin V-FITC/PI necrosis cell apoptosis assay; assay type: cell-based, human; conditions: % of population
Experimental: (§6) The levels of necrosis and apoptosis in cells were determined by CytoFLEX Flow Cytometer. A total of 1 × 10^6 cells were washed in 1 × DPBS, and then were centrifuged at 500 × ϲ for 5 min. 1 μL of annexin V-FITC solution and 5 μL of dissolved PI were added to 100 μL of the cell suspensions that kept on ice and were incubated for 15 min in the dark. Cells were then analyzed by the CytoFLEX Flow Cytometer (Beckman Coulter Life Sciences, USA) and the percentage of apoptotic cells was determined using CytExpert Software.

[19] = tested on: HCT-116 (human colon cancer); assay: MTT cytotoxicity assay; assay type: cell-based
Experimental: as §5

[20] = tested on: MCF-7 (human breast cancer); assay: MTT cytotoxicity assay; assay type: cell-based; conditions: for IC50: MTT
Experimental: as §5, with “The media was aspirated and the test chemicals were given to the cells in a single dose of 100 µM in DMSO.” left out

HCT-116 cells [21] = assay: Cell cycle analysis by flow cytometry (PI staining); assay type: cell-based, human
Experimental: The ethanol-suspended cells were centrifuged and re-suspended in 5 mL 1 × DPBS, then centrifuged again before being re-suspended in 1 mL of PI staining solution. The stained cells were kept in the dark at room temperature for 30 min before being transferred to the CytoFLEX Flow Cytometer to measure their fluorescence. […] BECKMAN COULTER Inc., Cairo, Egypt, Cat. No. 4238055-CB was used in this assay.

MCF-7 cells = assay: Annexin V-FITC/PI necrosis cell apoptosis assay; assay type: cell-based, human; conditions: % of population
Experimental: as §6

[22] = Aspergillus fumagitus, 20 µg/mL
[23] = Homo sapiens, MCF7, 48 h, MCF-7, 48 h

SMILES | Lipid peroxidation (Staphylococcus aureus [1]) [%] | Lipid peroxidation (Bacillus subtilis [2]) [%] | Lipid peroxidation (Pseudomonas aeruginosa [3]) [%] | Lipid peroxidation (Klebsiella pneumonia [4]) [%] | zone of inhibition at 20 µg/mL (Candida albicans [5]; 20 µg/mL) [mm] | zone of inhibition at 20 µg/mL (Aspergillus fumagitus [6]; [22]) [mm] | zone of inhibition at 20 µg/mL (Staphylococcus aureus [7]) [mm] | zone of inhibition at 20 µg/mL (Bacillus subtilis [8]; 20 µg/mL) [mm] | zone of inhibition at 20 µg/mL (Pseudomonas aeruginosa [9]; 20 µg/mL) [mm] | zone of inhibition at 20 µg/mL (Klebsiella pneumonia [10]; Klebsiella pneumonia, 20 µg/mL) [mm] | melting point [°C] | MIC (Staphylococcus aureus [11]) [µg/mL] | MIC (Bacillus subtilis [12]) [µg/mL] | MIC (Pseudomonas aeruginosa [13]) [µg/mL] | MIC (Klebsiella pneumonia [14]) [µg/mL] | MIC (Candida albicans [15]) [µg/mL] | MIC (Aspergillus fumagitus [16]) [µg/mL] | IC50 [20, 23] [µM] | also measured
Cc1ccc(NC(=O)N2CCOCC2)cc1 [Compound 15, N-(p-tolyl)morpholine-4-carboxamide] | 128.9 | 157.1 | 107 | 108.6 | 4 | 2 | 2 | 2 | 4 | 4 | 165 to 167 | 40 (≈ 182 µM) | 40 (≈ 182 µM) | 20 (≈ 90.8 µM) | 20 (≈ 90.8 µM) | 10 (≈ 45.4 µM) | 20 (≈ 90.8 µM) | – | –
CN1CCN(C(=O)Nc2ccccc2)CC1 [Compound 21, 4-Methyl-N-phenylpiperazine-1-carboxamide] | – | – | – | – | – | – | – | – | – | – | 128 to 130 | – | – | – | – | – | – | 91.6 ± 0.112 | Cytotoxicity (%) [17]: 47.2%; cytotoxicity at 48 h, 100 µM (MTT cytotoxicity assay): 38.9%; zone of inhibition at 20 µg/mL (Candida albicans [5]): 3 mm; zone of inhibition at 20 µg/mL (Aspergillus fumagitus [6]; Aspergillus): 2 mm; early apoptosis (HCT-116 cells [18]): 0.99%; late apoptosis (HCT-116 cells [18]): 0.44%; cytotoxicity at 100 µM ([19]; HCT-116, 48 h): ≥ 65%; IC50 ([19]; HCT-116, MTT, 48 h): 38.5 ± 0.17 µM; cytotoxicity at 100 µM ([20]; Homo sapiens, MCF7, 48 h): ≥ 51%; zone of inhibition at 20 µg/mL (Bacillus subtilis [8]): 4 mm; zone of inhibition at 20 µg/mL (Pseudomonas aeruginosa [9]): 2 mm; zone of inhibition at 20 µg/mL (Klebsiella pneumonia [10]): 3 mm; cell cycle arrest (phase) (HCT-116 cells [21]): weaker than those of compound 13
O=C(Nc1ccccc1)N1CCCCC1 [Compound 22, N-phenylpiperidine-1-carboxamide] | 273.4 | 264.8 | 170 | 191.3 | 5 | 4 | 2 | 5 | 3 | 3 | 190 to 192 | 40 (≈ 196 µM) | 10 (≈ 49 µM) | 80 (≈ 392 µM) | 40 (≈ 196 µM) | 5 (≈ 24.5 µM) | 10 (≈ 49 µM) | 91.6 ± 0.112 | early apoptosis (MCF-7 cells): 7.93%; late apoptosis (MCF-7 cells): 1.1%; cytotoxicity at 100 µM ([20]; Homo sapiens, MCF7, MCF-7, single dose 100 µM, 48 h, read-out: Cytotoxicity (%)): ≥ 51%; IC50 ([20]; MCF-7, 48 h): 57.9 ± 0.122 µM
